# Results as given in ChEMBL document CHEMBL1128769, “Structure-activity relationships of tricyclic quinoxalinediones as potent antagonists for the glycine binding site of the NMDA receptor 2” (Bioorg Med Chem Lett, 1995).
# Legend:
# [1] = biological target: Glutamate receptor ionotropic, NMDA 1 (Rattus norvegicus) (UniProt P35439); assay: Percent inhibition of [3H]- 5,7- dichloro -kynurenic acid binding to glycine binding site of NMDA receptor at 10 ng/mL
# [2] = biological target: Glutamate receptor ionotropic, NMDA 1 (Rattus norvegicus) (UniProt P35439); assay: Percent inhibition of binding affinity for the glycine binding site of the NMDA receptor using [3H]5,7- dichloro -kynurenic acid at a concentration of 10 ng/mL
# [3] = biological target: Glutamate receptor ionotropic, NMDA 1 (Rattus norvegicus, UniProt P35439); assay: Affinity for the glycine binding site of the NMDA receptor using [3H]- 5,7- dichloro -kynurenic acid as radio-ligand
inhibition [1] [%],inhibition [2] [%],Ki [3] [nM],SMILES
73,–,–,CC(=O)Nc1ccc(NC(=O)CC2CCc3cc(Br)cc4[nH]c(=O)c(=O)n2c34)cc1 (stereo not given)
83.3,–,–,Cc1ccc(NC(=O)CC2CCc3cc(Br)cc4[nH]c(=O)c(=O)n2c34)cc1 (stereo not given)
–,3.8,–,N#Cc1ccc(NC(=O)CC2CCc3cc(Br)cc4[nH]c(=O)c(=O)n2c34)cc1 (stereo not given)
76.4,–,–,Nc1ccc(NC(=O)CC2CCc3cc(Br)cc4[nH]c(=O)c(=O)n2c34)cc1 (stereo not given)
67.5,–,–,COc1ccc(NC(=O)CC2CCc3cc(Br)cc4[nH]c(=O)c(=O)n2c34)cc1 (stereo not given)
–,21.5,–,O=C(CC1CCc2cc(Br)cc3[nH]c(=O)c(=O)n1c23)Nc1ccc([N+](=O)[O-])cc1 (stereo not given)
1,–,–,O=C(CC1CCc2cc(Br)cc3[nH]c(=O)c(=O)n1c23)Nc1ccc(C(F)(F)F)cc1 (stereo not given)

# Further lines, the compound ahead of its results:
SMILES,inhibition [1] [%],inhibition [2] [%],Ki [3] [nM]
C[C@H]1Cc2cc(Cl)cc3[nH]c(=O)c(=O)n(c23)C1CC(=O)O (stereo not given in full),–,–,4.4
O=C(CC1CCc2cc(Br)cc3[nH]c(=O)c(=O)n1c23)NC1CCCCC1 (stereo not given),23.8,–,–
O=C(CC1CCc2cc(I)cc3[nH]c(=O)c(=O)n1c23)Nc1ccccc1 (stereo not given),46.7,–,134
O=C(O)CC1CCc2cc(Br)cc3[nH]c(=O)c(=O)n1c23 (stereo not given),68.7,–,9.9
O=C(O)CC1CCc2cc(I)cc3[nH]c(=O)c(=O)n1c23 (stereo not given),76.2,–,46.6
O=C(CC1CCc2cc(Br)cc3[nH]c(=O)c(=O)n1c23)Nc1ccccc1 (stereo not given),92.9,–,2.6
C[C@H]1Cc2cc(Cl)cc3[nH]c(=O)c(=O)n(c23)C1CC(=O)Nc1ccccc1 (stereo not given in full),–,–,3.1
O=C(CC1CCc2cc(Cl)cc3[nH]c(=O)c(=O)n1c23)Nc1ccccc1 (stereo not given),79.3,–,6.6
O=C(CC1CCc2cccc3[nH]c(=O)c(=O)n1c23)Nc1ccccc1 (stereo not given),–,52.7,–
O=C(O)CC1CCc2cc(Cl)cc3[nH]c(=O)c(=O)n1c23 (stereo not given),90.3,–,5.1
NC(=O)CC1CCc2cc(Br)cc3[nH]c(=O)c(=O)n1c23 (stereo not given),28.9,–,–
O=C(O)CC1CCc2cccc3[nH]c(=O)c(=O)n1c23 (stereo not given),–,30.3,–
